From US20100120769A1, “CYCLOHEXYL PIPERAZINYL METHANONE DERIVATIVES” (priority 2006, published 2010)

Target: T1, histamine 3 receptor (H3R) (Homo sapiens, UniProt Q9Y5N1)
T1 construct: expressed in transfected cells; host or cells: CHO cells (HR3-CHO)
Assay: Binding assay with 3H-(R)α-methylhistamine (competition binding, HR3-CHO membranes)
Conditions: membrane of the human HR3-CHO cell line, 3H(R)α-Methylhistamine 1 nM; Ki calculated from IC50 by Cheng-Prusoff
Description: Binding Assay with ^3H-(R)α-methylhistamine
Saturation binding experiments were performed using HR3-CHO membranes prepared as described in Takahashi, K, Tokita, S., Kotani, H. (2003) J. Pharmacol. Exp. Therapeutics 307, 213-218.
An appropriate amount of membrane (60 to 80 μg protein/well) was incubated with increasing concentrations of ^3H(R)α-Methylhistamine di-hydrochloride (0.10 to 10 nM). Non specific binding was determined using a 200 fold excess of cold (R)α-Methylhistamine dihydrobromide (500 nM final concentration). The incubation was carried out at room temperature (in deep-well plates shaking for three hours). The final volume in each well was 250 μl. The incubation was followed by rapid filtration on GF/B filters (pre-soaked with 100 μl of 0.5% PEI in Tris 50 mM shaking at 200 rpm for two hours). The filtration was made using a cell-harvester and the filter plates were then washed five times with ice cold washing buffer containing 0.5 M NaCl. After harvesting, the plates were dried at 55° C. for 60 min, then we added scintillation fluid (Microscint 40, 40 microl in each well) and the amount of radioactivity on the filter was determined in Packard top-counter after shaking the plates for two hours at 200 rpm at room temperature.
Binding Buffer: 50 mM Tris-HCl pH 7.4 and 5 mM MgCl2x6H2O pH 7.4. Washing Buffer: 50 mM Tris-HCl pH 7.4 and 5 mM MgCl2x6H2O and 0.5 M NaCl pH 7.4.
Indirect measurement of affinity of H3R inverse agonists: twelve increasing concentrations (ranging from 10 μM to 0.3 nM) of the selected compounds were always tested in competition binding experiments using membrane of the human HR3-CHO cell line. An appropriate amount of protein, e.g. approximately 500 cpm binding of RAMH at Kd, were incubated for 1 hour at room temperature in 250 μl final volume in 96-well plates in presence of ^3H(R)α-Methylhistamine (1 nM final concentration=Kd). […]
All compounds were tested at a single concentration in duplicates. […] Ki's were calculated from IC50 based on Cheng-Prusoff equation (Cheng, Y, Prusoff, W H (1973) Biochem Pharmacol 22, 3099-3108).

T1 sequence (Q9Y5N1 whole entry): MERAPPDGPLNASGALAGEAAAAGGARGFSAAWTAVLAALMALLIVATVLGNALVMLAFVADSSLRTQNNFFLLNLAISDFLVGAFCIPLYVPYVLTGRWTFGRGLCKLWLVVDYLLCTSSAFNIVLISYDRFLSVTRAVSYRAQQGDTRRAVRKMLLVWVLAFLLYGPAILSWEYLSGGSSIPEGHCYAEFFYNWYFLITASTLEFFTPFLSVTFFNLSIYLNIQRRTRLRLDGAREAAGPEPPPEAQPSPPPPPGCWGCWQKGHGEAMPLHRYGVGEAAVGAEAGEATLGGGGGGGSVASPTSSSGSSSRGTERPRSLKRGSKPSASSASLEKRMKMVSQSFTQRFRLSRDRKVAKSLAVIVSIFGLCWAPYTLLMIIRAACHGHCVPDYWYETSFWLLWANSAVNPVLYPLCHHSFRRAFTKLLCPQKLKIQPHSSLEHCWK

SMILES | Ki [nM]
Cc1ccc(NC2CCC(C(=O)N3CCN(C(C)C)CC3)CC2)cc1 (stereo not drawn) [Example 1, (4-Isopropyl-piperazin-1-yl)-(4-p-tolylamino-cyclohexyl)-methanone] | 52.8
CC(C)N1CCN(C(=O)[C@H]2CC[C@H](NC(=O)c3ccc(Cl)cc3Cl)CC2)CC1 [Example 13, 2,4-dichloro-N-[trans-4-(4-isopropyl-piperazine-1-carbonyl)-cyclohexyl]-benzamide] | 88.1
CC(C)N1CCN(C(=O)[C@H]2CC[C@H](NC(=O)N(C)c3cccc(F)c3)CC2)CC1 [Example 32, 1-(3-fluoro-phenyl)-3-[trans-4-(4-isopropyl-piperazine-1-carbonyl)-cyclohexyl]-1-methyl-urea] | 38.4
